Data: patent publication US8802597B2, “Herbicidal pyrimidines” (E I du Pont de Nemours and Company, priority 2003, dated 2014)

How the values were obtained:
Format in all cases: in vivo
[1] = system: giant foxtail (Setaria faberi); test: Test A pre/postemergence
Method in brief: (§1)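 Visual injury scored 0–100 (0 = no effect, 100 = complete control) against untreated controls after about ten days in the greenhouse. Compounds, formulated in non-phytotoxic solvent plus surfactant, were applied preemergence as a directed soil spray and postemergence at the 1- to 2-leaf stage (2–10 cm).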

[2] = system: morningglory (Ipomoea spp.); test: Test A pre/postemergence
Method in brief: as §1

[3] = system: redroot pigweed (Amaranthus retroflexus); test: Test A pre/postemergence
Method in brief: as §1

[4] = system: velvetleaf (Abutilon theophrasti); test: Test A pre/postemergence
Method in brief: as §1

[5] = system: Italian ryegrass (Lolium multiflorum); test: Test C postemergence
Method in brief: (§2)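 Greenhouse pot test: seeds treated preemergence, or plants at 2–18 cm (1- to 4-leaf stage) treated postemergence, with compound in non-phytotoxic solvent plus surfactant. Visual rating versus untreated controls after 12–14 days, scale 0 (no effect) to 100 (complete control); dash means not tested.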

[6] = system: blackgrass (Alopecurus myosuroides); test: Test C postemergence
Method in brief: as §2

[7] = system: canarygrass (Phalaris minor); test: Test C postemergence
Method in brief: as §2

[8] = system: downy brome (Bromus tectorum); test: Test C postemergence
Method in brief: as §2

[9] = system: green foxtail (Setaria viridis); test: Test C postemergence
Method in brief: as §2

[10] = system: wheat (Triticum aestivum); test: Test C postemergence
Method in brief: as §2

[11] = system: wild oat (Avena fatua); test: Test C postemergence
Method in brief: as §2

[12] = system: windgrass (Apera spica-venti); test: Test C postemergence
Method in brief: as §2

[13] = system: winter barley (Hordeum vulgare); test: Test C postemergence; settings: for Barley plant response rating: scale 0 to 100 (0 no effect, 100 complete control)
Method in brief: as §2

[14] = Postemergence, 125 g ai/ha, 0 to 100 scale (0 no effect, 100 complete control)
[15] = Postemergence, 500 g ai/ha, 0 to 100 scale (0 no effect, 100 complete control)
[16] = Preemergence, 125 g ai/ha, 0 to 100 scale where 0 is no effect and 100 is complete control, approximately ten days
[17] = Preemergence, 500 g ai/ha, 0 to 100 scale where 0 is no effect and 100 is complete control, approximately ten days
[18] = 125 g ai/ha, scale 0 to 100 (0 no effect, 100 complete control)

Nc1nc(-c2ccc(Br)cc2)nc(C(=O)O)c1Br [Compound 136]
30: Plant response rating, Velvetleaf [4, 16] | Plant response rating (scale of 0 to 100), Bromegrass, Downy ([8]; 16 g ai/ha)
65: Ryegrass, Italian plant response rating [5, 18] | Plant response rating (scale of 0 to 100), Blackgrass ([6]; 62 g ai/ha) | Blackgrass plant response rating [6, 18] | Canarygrass plant response rating [7, 18] | Plant response rating (scale of 0 to 100), Foxtail, Green ([9]; 31 g ai/ha) | Plant response rating (scale of 0 to 100), Windgrass ([12]; 62 g ai/ha) | Windgrass plant response rating [12, 18]
75: Plant response rating, Foxtail, Giant [1, 14] | Plant response rating, Velvetleaf [4, 17]
40: Plant response rating (scale of 0 to 100), Blackgrass ([6]; 16 g ai/ha) | Plant response rating (scale of 0 to 100), Canarygrass ([7]; 16 g ai/ha) | Plant response rating (scale of 0 to 100), Wheat ([10]; 31 g ai/ha) | Plant response rating (scale of 0 to 100), Oat, Wild ([11]; 16 g ai/ha) | Plant response rating (scale of 0 to 100), Barley ([13]; 16 g ai/ha)
85: Plant response rating, Pigweed [3, 14] | Plant response rating, Velvetleaf [4, 14]
55: Plant response rating (scale of 0 to 100), Blackgrass ([6]; 31 g ai/ha) | Plant response rating (scale of 0 to 100), Canarygrass ([7]; 62 g ai/ha) | Bromegrass, Downy plant response rating [8, 18] | Wheat plant response rating [10, 18] | Plant response rating (scale of 0 to 100), Oat, Wild ([11]; 62 g ai/ha) | Barley plant response rating ([13]; 125 g ai/ha)
50: Plant response rating (scale of 0 to 100), Ryegrass, Italian ([5]; 31 g ai/ha) | Plant response rating (scale of 0 to 100), Barley ([13]; 31 g ai/ha) | Barley plant response rating ([13]; 62 g ai/ha)
10: Plant response rating, Foxtail, Giant [1, 16] | Plant response rating, Morningglory [2, 16]
20: Plant response rating, Morningglory [2, 17] | Plant response rating (scale of 0 to 100), Wheat ([10]; 16 g ai/ha)
60: Plant response rating, Foxtail, Giant [1, 17] | Plant response rating (scale of 0 to 100), Ryegrass, Italian ([5]; 62 g ai/ha) | Oat, Wild plant response rating [11, 18] | Plant response rating (scale of 0 to 100), Windgrass ([12]; 31 g ai/ha)
70: Plant response rating, Morningglory [2, 14] | Plant response rating (scale of 0 to 100), Foxtail, Green ([9]; 62 g ai/ha) | Foxtail, Green plant response rating [9, 18]
45: Plant response rating, Pigweed [3, 16] | Plant response rating (scale of 0 to 100), Ryegrass, Italian ([5]; 16 g ai/ha) | Plant response rating (scale of 0 to 100), Canarygrass ([7]; 31 g ai/ha) | Plant response rating (scale of 0 to 100), Bromegrass, Downy ([8]; 62 g ai/ha) | Plant response rating (scale of 0 to 100), Foxtail, Green ([9]; 16 g ai/ha) | Plant response rating (scale of 0 to 100), Wheat ([10]; 62 g ai/ha) | Plant response rating (scale of 0 to 100), Oat, Wild ([11]; 31 g ai/ha) | Plant response rating (scale of 0 to 100), Windgrass ([12]; 16 g ai/ha)
100: Plant response rating, Pigweed [3, 15] | Plant response rating, Pigweed [3, 17]
80: Plant response rating, Foxtail, Giant [1, 15] | Plant response rating, Morningglory [2, 15]
95: Plant response rating, Velvetleaf [4, 15]
